From US20070088033A1, “Diaryl Substituted Pyridinones” (priority 2002, published 2007) come the findings set out here.

For one series, the target named is T1, human p38 kinase alpha (Homo sapiens, UniProt Q16539).
T1 construct: The coding region of the human p38 cDNA was obtained by PCR-amplification from RNA isolated from the human monocyte cell line THP.1; GST (N); made in house; host or cells: E. coli DH10B
Briefly: p38 kinase in vitro assay. The class given is biochemical. As for the experimental part: The ability of compounds to inhibit human p38 kinase alpha was evaluated using two in vitro assay methods. In the first method, activated human p38 kinase alpha phosphorylates a biotinylated substrate, PHAS-I (phosphorylated heat and acid stable protein-insulin inducible), in the presence of gamma ^32p-ATP (^32P-ATP). PHAS-I was biotinylated prior to the assay and provides a means of capturing the substrate, which is phosphorylated during the assay. p38 Kinase was activated by MKK6. Compounds were tested in 10 fold serial dilutions over the range of 100 μM to 0,001 μM using 1% DMSO. Each concentration of inhibitor was tested in triplicate.
All reactions were carried out in 96 well polypropylene plates. Each reaction well contained 25 mM HEPES pH 7.5, 10 mM magnesium acetate and 50 μM unlabeled ATP. […] Activated human p38 kinase alpha was used at 1 μg per 50 μl reaction volume representing a final concentration of 0.3 μM. Gamma ^32P-ATP was used to follow the phosphorylation of PHAS-I. ^32P-ATP has a specific activity of 3000 Ci/mmol and was used at 1.2 μCi per 50 μl reaction volume. The reaction proceeded either for one hour or overnight at 30° C.
Following incubation, 20 μl of reaction mixture was transferred to a high capacity streptavidin coated filter plate (SAM-streptavidin-matrix, Promega) prewetted with phosphate buffered saline, The transferred reaction mix was allowed to contact the streptavidin membrane of the Promega plate for 1-2 minutes. […] Filter plates were air-dried and 20 μl of scintillant was added. The plates were sealed and counted.
A second assay format was also employed that is based on p38 kinase alpha induced phosphorylation of EGFRP (epidermal growth factor receptor peptide, a 21 mer) in the presence ^33P-ATP. Compounds were tested in 10 fold serial dilutions over the range of 100 μM to 0.001 μM in 1% DMSO. Each concentration of inhibitor was tested in triplicate. Compounds were evaluated in 50 μl reaction volumes in the presence of 25 mM Hepes pH 7.5, 10 mM magnesium acetate, 4% glycerol, 0.4% bovine serum albumin, 0.4 mM DTT, 50 μM unlabeled ATP, 25 μg EGFRP (200 μM), and 0.05 μCi ^33p-ATP. Reactions were initiated by addition of 0.09 μg of activated, purified human GST-p38 kinase alpha. Activation was carried out using GST-MKK6 (5:1,p38:MKK6) for one hour at 30° C. in the presence of 50 μM ATP. Following incubation for 60 minutes at room temperature, the reaction was stopped by addition of 150 μl of AG 1×8 resin in 900 mM sodium formate buffer, pH 3.0 (1 volume resin to 2 volumes buffer). The mixture was mixed three times with pipetting and the resin was allowed to settle. A total of 50 μl of clarified solution head volume was transferred from the reaction wells to Microlite-2 plates. 150 μl of Microscint 40 was then added to each well of the Microlite plate, and the plate was sealed, mixed, and counted.

The mark [1] stands for this setting: Table III, n = number of times assayed, n=1 if not reported, read-out: p38 Alpha IC50.
[2] abbreviates: Table II, several values in a cell = repeat determinations, read-out: p38A.
Setting [3] is: Table I, average of n trials, n=1 if not reported, read-out: p38 Alpha IC50.

Each structure is given as a SMILES string. pIC50: −log10 of the molar value. Several values for one entry are separate records, joined by “and”; a condition that tells them apart may be missing. Identical values can stand only once. Like-named read-outs stand apart in the source and are kept apart here.

T1 sequence (Q16539 whole entry): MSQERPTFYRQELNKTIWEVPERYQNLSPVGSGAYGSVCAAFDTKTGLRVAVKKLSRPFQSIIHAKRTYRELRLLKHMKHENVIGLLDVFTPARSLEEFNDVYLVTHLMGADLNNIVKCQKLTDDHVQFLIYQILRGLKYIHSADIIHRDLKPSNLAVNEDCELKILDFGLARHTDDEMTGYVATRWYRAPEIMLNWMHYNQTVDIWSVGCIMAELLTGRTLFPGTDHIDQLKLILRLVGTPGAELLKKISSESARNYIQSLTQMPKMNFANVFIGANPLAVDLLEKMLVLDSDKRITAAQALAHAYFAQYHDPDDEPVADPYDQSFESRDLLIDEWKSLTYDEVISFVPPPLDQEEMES

By melting point is commonly meant the temperature of the solid-liquid transition. `Cl.O=c1c(Br)c(OCc2ccccc2)ccn1CC1CCNCC1` had a melting point of 207.9 °C. In turn, `Cl.O=c1c(Br)c(OCc2ccccc2)ccn1CC1CCCNC1` (stereo not shown) came in with a melting point of 138.1 to 139.2 °C. Same read-out and setting: next, `Cc1ccc(Cn2ccc(OCc3ccccc3)cc2=O)cc1` [Example 1, 4-(benzyloxy)-1-(4-methylbenzyl)pyridin-2(1H)-one]: 142.8 to 143.3 °C. The same measure, in the same setting: under `Cc1ccc(Cn2ccc(OCc3ccccc3)c(Br)c2=O)cc1` [Example 2, 4-(benzyloxy)-3-bromo-1-(4-methylbenzyl)pyridin-2(1H)-one] stands 150.4 to 151.2 °C; under `O=c1c(Br)c(OCc2ccccc2)ccn1Cc1ccc(OCc2ccccc2)cc1` [Example 12, 4-(benzyloxy)-1-[4-(benzyloxy)benzyl]-3-bromopyridin-2(1H)-one], 137.6 to 144.3 °C; under `O=C(O)c1ccc(Cn2ccc(OCc3ccccc3)c(Br)c2=O)cc1` [Example 15, 4-{[4-(benzyloxy)-3-bromo-2-oxopyridin-1(2H)-yl]methyl}benzoic acid], 250.8 to 255.7 °C. Molecule `CCn1ccc(OCc2ccccc2)c(Br)c1=O` [Example 20, 4-(benzyloxy)-3-bromo-1-ethylpyridin-2(1H)-one] came in with a melting point of 61.3 to 64.8 °C.

Take `O=c1c(Br)c(O)ccn1Cc1ccc(O)cc1` [Example 21, 3-bromo-4-hydroxy-1-(4-hydroxybenzyl)pyridin-2(1H)-one]: the melting point fell in the range of 102 to 108 °C.

Molecule `Cn1ccc(OCc2ccccc2)c(Br)c1=O` [Example 23, 4-(benzyloxy)-3-bromo-1-methylpyridin-2(1H)-one] registered a melting point of 61.3 to 64.8 °C.

Molecule `NC(=NO)c1ccc(Cn2ccc(OCc3ccccc3)c(Br)c2=O)cc1` [Example 24, 4-{[4-(benzyloxy)-3-bromo-2-oxopyridin-1(2H)-yl]methyl}-N′-hydroxybenzenecarboximidamide] yielded a melting point of 210.2 to 212.2 °C. Turning to `O=c1c(Br)c(OCc2ccccc2)ccn1CCc1ccsc1` [Example 29, 4-(benzyloxy)-3-bromo-1-(2-thien-3-ylethyl)pyridin-2(1H)-one], the melting point fell in the range of 134 to 134.3 °C. The same measure, in the same setting: next, `O=c1c(Br)c(OCc2ccccc2)ccn1CCc1cccs1` [Example 30, 4-(benzyloxy)-3-bromo-1-(2-thien-2-ylethyl)pyridin-2(1H)-one]: 128 to 129.5 °C; `O=c1c(Br)c(OCc2ccccc2)ccn1Cc1cccc(C(F)(F)F)c1` [Example 31, 4-(benzyloxy)-3-bromo-1-[3-(trifluoromethyl)benzyl]pyridin-2(1H)-one]: 181.5 to 181.6 °C; `O=c1cc(OCc2c(Cl)cccc2Cl)ccn1Cc1ccccc1` [Example 40, 1-Benzyl-4-[2,6-(dichlorobenzyl)oxy]pyridin-2(1H)-one]: 151.6 to 152 °C. Take `O=c1cc(OCc2ccccc2Cl)ccn1Cc1ccccc1` [Example 42, 1-Benzyl-4-[(2-chlorobenzyl)oxy]pyridin-2(1H)-one]: the melting point fell in the range of 124.6 to 125 °C.

`O=c1c(Br)c(OCc2ccccc2Cl)ccn1Cc1ccccc1` [Example 43, 1-Benzyl-3-bromo-4-[(2-chlorobenzyl)oxy]pyridin-2(1H)-one] showed a melting point of 143.3 to 145.5 °C. Same read-out and setting: under `Cc1ccc(COc2ccn(Cc3ccccc3)c(=O)c2Br)cc1` [Example 44, 1-Benzyl-3-bromo-4-[(4-methylbenzyl)oxy]pyridin-2(1H)-one] stands 149 to 149.7 °C.

In turn, `O=c1cc(OCc2cccc(Cl)c2)ccn1Cc1ccccc1` [Example 45, 1-Benzyl-4-[(3-chlorobenzyl)oxy]pyridin-2(1H)-one] returned a melting point of 95.5 to 95.7 °C.

`O=c1c(Br)c(SCc2ccccc2)ccn1Cc1ccccc1` [Example 46] returned a melting point of 180.6 to 182.1 °C. On the same count and under the same terms, next, `O=c1c(Br)c(OCc2ccccc2C(F)(F)F)ccn1Cc1ccccc1` [Example 47, 1-Benzyl-3-bromo-4-{[2-(trifluoromethyl)benzyl]oxy}pyridin-2(1H)-one]: 133.2 to 133.5 °C. As to `O=c1c(Br)c(OCc2c(Cl)cccc2Cl)ccn1Cc1ccccc1` [Example 461, 1-Benzyl-3-bromo-4-[2,6-(dichlorobenzyl)oxy]pyridin-2(1H)-one], the melting point lay within 156.3 to 157.9 °C.

On to `CCn1ccc(OCc2ccccc2)c(Br)c1=O` [SSSSS], for which the pIC50 at human p38 kinase alpha (setting [1]) was 5.70. As for `O=c1c(Br)c(OCc2ccc(F)cc2F)ccn1Cc1ccncc1` [SSSS], on human p38 kinase alpha (setting [1]), the pIC50 is 6.85. Consider `O=c1c(Br)c(OCc2ccccc2)ccn1Cc1cccc(C(F)(F)F)c1` [SSS], for which the pIC50 on human p38 kinase alpha (setting [2]) is 5.01. Same read-out and setting: under `O=c1c(Br)c(OCc2ccc(F)cc2)ccn1Cc1ccc(F)cc1` [SS] stands 5.90 and 6.04.

In the case of `NCc1cccc(Cn2ccc(OCc3ccc(F)cc3)c(Br)c2=O)c1` [TTTT], at human p38 kinase alpha (setting [1]), the pIC50 is 6.76.

On to `O=c1c(Br)c(OCc2ccccc2)ccn1Cc1ccc(OCc2ccccc2)cc1` [TT], for which the pIC50 at human p38 kinase alpha (setting [2]) is 5.84. For the molecule `O=C(O)c1ccc(Cn2ccc(OCc3ccccc3)c(Br)c2=O)cc1` [T], the pIC50 on human p38 kinase alpha (setting [3]) was 6.37.

For `Cc1cc(OCc2c(F)cc(F)cc2F)c(Br)c(=O)n1Cc1ccncc1` [UUUU], on human p38 kinase alpha (setting [1]), the pIC50 was 6.72.

Regarding `O=c1c(Br)c(OCc2ccc(F)cc2)ccn1Cc1cccc(Cl)c1` [UU], at human p38 kinase alpha (setting [2]), the pIC50 is 5.94. Turning to `O=c1c(Br)c(OCc2ccccc2)ccn1Cc1ccccc1F` [U], the pIC50 on human p38 kinase alpha (setting [3]) was 6.37. For `Cc1cc(OCc2ccc(F)cc2F)c(Br)c(=O)n1Cc1ccncc1` [VVVV], the pIC50 at human p38 kinase alpha (setting [1]) is 6.74.

For the molecule `O=c1c(Br)c(OCc2c(Cl)cccc2Cl)ccn1Cc1ccccc1` [VV], on human p38 kinase alpha (setting [2]), the pIC50 is 4.84. As to `Cc1cccc(C)c1-n1c(C)cc(OCc2ccc(F)cc2)c(Br)c1=O` [V], on human p38 kinase alpha (setting [3]), the pIC50 is 6.34. In the case of `Cc1cccc(COc2ccn(Cc3cccc(F)c3)c(=O)c2Br)c1` [WWWW], the pIC50 on human p38 kinase alpha (setting [1]) was 6.59.

In the case of `O=c1cc(OCc2ccccc2Cl)ccn1Cc1ccccc1` [WWW], the pIC50 on human p38 kinase alpha (setting [2]) was 4.09. With `CSc1ccc(Cn2ccc(OCc3ccccc3)c(Br)c2=O)cc1` [W], at human p38 kinase alpha (setting [3]), the pIC50 is 6.35. In the case of `O=c1c(Br)c(OCc2ccc(F)cc2F)ccn1Cc1cccnc1` [XXXX], the pIC50 at human p38 kinase alpha (setting [1]) is 6.55. As for `O=c1cc(OCc2cccc(Cl)c2)ccn1Cc1ccccc1` [XXX], on human p38 kinase alpha (setting [2]), the pIC50 is 4.29. On to `Cc1cc(OCc2ccccc2)c(Br)c(=O)n1Cc1ccccc1` [XX], for which the pIC50 at human p38 kinase alpha (setting [2]) is 6.66. For `O=c1c(Cl)c(OCc2ccccc2)ccn1Cc1ccccc1` [X], the pIC50 on human p38 kinase alpha (setting [3]) was 6.35. Regarding `Cc1cc(OCc2c(F)cccc2F)c(Br)c(=O)n1-c1c(Cl)cccc1Cl` [YYYY], the pIC50 on human p38 kinase alpha (setting [1]) was 6.47. In the case of `O=c1c(Br)c(OCc2ccccc2)ccn1CCc1cccs1` [YYY], at human p38 kinase alpha (setting [2]), the pIC50 was 5.65. In the case of `N/C(=N/O)c1ccc(Cn2ccc(OCc3ccccc3)c(Br)c2=O)cc1` [Y], the pIC50 at human p38 kinase alpha (setting [3]) was 6.31. On to `CC(C)(C)c1ccc(Cn2ccc(OCc3ccccc3)c(Br)c2=O)cc1` [ZZ], for which the pIC50 on human p38 kinase alpha (setting [2]) is 5.44. Turning to `COC(=O)c1ccc(Cn2ccc(OCc3ccccc3)c(Br)c2=O)cc1` [Z], the pIC50 on human p38 kinase alpha (setting [3]) is 6.29.
